# Measured values published in US20180319865A1, “Identification of Novel Small Molecule Beta2 Integrin Agonists” (Rush University Medical Center, priority 2016, published 2018).
# pEC50: −log10 of the molar value.
# Biological target: T1, mutant integrin CD11bE320A/CD18 (Homo sapiens, UniProt P11215, E336A)
# T1 construct: expressed in transfected cells; host or cells: K562 (ATCC)
# Assay: HTS cell adhesion assay, K562 E320A cells on immobilized fibrinogen
# Assay type: cell-based
# Details: Table 3, adhesion to fibrinogen, five point dose-response
# Protocol: K562 cells stably expressing CD11c/CD18 (K562 CD11c/CD18) were generated similarly. […] K562 cells stably transfected with mutant integrin CD11bE320A/CD18 (K562 E320A) were generated according to literature protocols. All cell lines were maintained in Iscove's Modified Dulbecco's Medium (IMDM) supplemented with 10% heat-inactivated fetal bovine serum, 50 IU/mL penicillin and streptomycin and 0.5 mg/mL G418.
# Cell adhesion assays with immobilized ligands were performed using the general protocol previously described and as illustrated in FIG. 1 [33]. Assays with all different K562 cell lines (K562, K562 CD11b/CD18, K562 CD11c/CD18 and K562 E320A) were performed in an identical fashion. Briefly, 384-well microplates (Corning 3700) were coated with 15 μg/mL fibrinogen (Fg) ligand in PBS^++ overnight at 4° C. At the same time, anti-CD18 (IB4) mAb was also coated. Subsequently, the coated wells were washed with 1% nonfat milk in TBS at room temperature for 1 hour. Next, the wells were washed 3 times with TBS, and the coated microplates were used in the HTS assays.
# K562 CD11b/CD18, K562 CD11bE320A/CD18 and K562 CD11c/CD18 cells were washed with TBS, and cells were transferred to the Fg-coated wells of microplates in the assay buffer (Ca^2+ and Mg^2+ for physiological condition, Mn^2+ as the Positive control). A 1 μL aliquot of the compounds were transferred to each washed well with multichannel pipet from the 384-well plates.
# The assay plates were incubated at 37° C. in the presence of small-molecule compounds for 30 min. To dislodge the non-adherent cell, the assay plates were gently inverted and kept in inverted position for 20 min at room temperature.
# The cells were fixed with 37% formaldehyde in a small volume and the plates were kept inverted for 1 h. Upon the fixation, the solutions in the well were discarded. Next, the cells were fluorescently labeled with DAPI (0.5 μM final in TBS with 0.1% Triton X-100) and the quantitated with “Opera High Content Screening System” (Perkin Elmer).
# Cell-adhesion under positive and negative control conditions was used to define the activity scale; signal corresponding to the number of non-small molecule treated cells adherent in activating buffer condition (in the presence of Mn^2+ ions as agonist, PC) was considered maximum (100% binding) and the signal corresponding to the number of non-small molecule treated cells adherent in basal buffer condition (in the presence of 1 mM each of Ca^2+ and Mg^2+, NC) was considered minimum (0% binding).
# T1 sequence (P11215 17-1152 E336A): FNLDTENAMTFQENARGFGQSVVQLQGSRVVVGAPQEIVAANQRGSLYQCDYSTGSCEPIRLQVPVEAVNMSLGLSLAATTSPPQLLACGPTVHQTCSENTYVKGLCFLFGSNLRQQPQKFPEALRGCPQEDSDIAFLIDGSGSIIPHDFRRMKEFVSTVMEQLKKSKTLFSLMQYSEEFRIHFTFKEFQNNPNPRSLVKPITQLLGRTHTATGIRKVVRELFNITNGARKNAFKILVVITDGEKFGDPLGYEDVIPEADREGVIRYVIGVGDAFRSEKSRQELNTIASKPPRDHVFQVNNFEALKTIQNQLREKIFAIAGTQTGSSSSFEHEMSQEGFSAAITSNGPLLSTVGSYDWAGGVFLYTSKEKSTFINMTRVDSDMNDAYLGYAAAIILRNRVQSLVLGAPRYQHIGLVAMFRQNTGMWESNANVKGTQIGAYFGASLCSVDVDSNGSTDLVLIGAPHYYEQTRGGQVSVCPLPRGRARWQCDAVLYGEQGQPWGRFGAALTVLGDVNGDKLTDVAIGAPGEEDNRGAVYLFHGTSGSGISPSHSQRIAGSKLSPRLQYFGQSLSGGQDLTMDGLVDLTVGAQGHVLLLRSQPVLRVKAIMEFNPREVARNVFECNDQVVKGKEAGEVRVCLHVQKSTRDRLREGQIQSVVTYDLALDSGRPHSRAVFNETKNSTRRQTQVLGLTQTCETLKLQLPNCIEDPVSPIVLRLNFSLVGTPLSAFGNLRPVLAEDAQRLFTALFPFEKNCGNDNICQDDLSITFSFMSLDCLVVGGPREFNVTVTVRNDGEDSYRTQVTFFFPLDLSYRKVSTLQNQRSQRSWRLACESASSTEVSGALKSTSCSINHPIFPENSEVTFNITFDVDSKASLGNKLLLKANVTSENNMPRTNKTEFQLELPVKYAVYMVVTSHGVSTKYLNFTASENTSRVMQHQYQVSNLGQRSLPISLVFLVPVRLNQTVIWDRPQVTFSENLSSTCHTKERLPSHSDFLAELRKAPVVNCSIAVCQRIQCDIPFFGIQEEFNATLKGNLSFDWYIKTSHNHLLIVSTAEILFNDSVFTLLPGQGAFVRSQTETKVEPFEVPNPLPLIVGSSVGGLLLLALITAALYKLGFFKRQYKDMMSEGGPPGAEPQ
# T1 sequence (P05107 23-769 partner): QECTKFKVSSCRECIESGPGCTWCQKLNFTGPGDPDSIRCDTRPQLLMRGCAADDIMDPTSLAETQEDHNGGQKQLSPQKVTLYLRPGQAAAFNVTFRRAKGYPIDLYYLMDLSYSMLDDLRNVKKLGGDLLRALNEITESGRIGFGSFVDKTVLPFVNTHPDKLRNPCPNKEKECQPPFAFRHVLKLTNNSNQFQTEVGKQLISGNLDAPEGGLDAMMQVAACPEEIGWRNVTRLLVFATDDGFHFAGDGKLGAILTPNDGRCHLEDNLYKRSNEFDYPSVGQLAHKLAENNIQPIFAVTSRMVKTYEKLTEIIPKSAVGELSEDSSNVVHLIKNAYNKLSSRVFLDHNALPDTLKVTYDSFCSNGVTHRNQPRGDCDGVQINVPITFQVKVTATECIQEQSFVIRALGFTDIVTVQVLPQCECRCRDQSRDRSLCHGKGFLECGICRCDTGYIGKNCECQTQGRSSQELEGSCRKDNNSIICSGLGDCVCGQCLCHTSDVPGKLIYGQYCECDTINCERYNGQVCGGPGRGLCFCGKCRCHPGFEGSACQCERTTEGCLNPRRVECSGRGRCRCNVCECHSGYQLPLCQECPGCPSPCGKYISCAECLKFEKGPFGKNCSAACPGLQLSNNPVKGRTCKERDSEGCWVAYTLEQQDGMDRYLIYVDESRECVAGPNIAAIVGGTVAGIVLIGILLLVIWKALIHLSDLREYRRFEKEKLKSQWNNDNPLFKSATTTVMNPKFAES
Compound,pEC50,EC50 E320A
Cc1cc(/C=C2\C(=O)NC(=O)N(c3ccc(Cl)cc3)C2=O)c(C)n1-c1sc2c(c1C#N)CCCC2 [Compound 1418314],5.02,
Cc1ccc2nc3sc(C(=O)Nc4ccc(N5CCOCC5)cc4)c(N)c3cc2c1 [Compound 1442651],4.97,
C=CCn1c(SCC(=O)Nc2sccc2C#N)nc2sc(C)c(C)c2c1=O [Compound 1564171],4.83,
Cc1ccc(-c2cc(C(=O)N/N=C/C=C/c3ccco3)c3ccccc3n2)cc1C [Compound 1764811],4.71,
CCCSc1nnc(NC(=O)c2sc3nc(-c4cccs4)ccc3c2N)s1 [Compound 1773030],5.11,
COc1ccc(/C=c2\sc3nc(-c4ccccc4OC)nn3c2=O)c(OC)c1 [Compound 1827856],5.15,
O=c1nc2s/c(=C\c3ccco3)c(=O)n2nc1Cc1ccc(F)cc1 [Compound 1844411],5.15,
Cc1ccc(/C=C2\SC(=S)N(CC(=O)Nc3ncc(Cc4ccccc4Cl)s3)C2=O)cc1 [Compound 1871747],4.81,
CCOC(=O)c1[nH]c2ccc(Cl)cc2c1NC(=O)/C=C/c1ccc2c(c1)OCO2 [Compound 1973614],4.36,
Nc1c(C(=O)Nc2cccc(Cl)c2Cl)sc2nc(-c3cccnc3)ccc12 [Compound 1976060],6.50,
O=C1NC(=S)N(C2CC2)C(=O)/C1=C/c1ccc2c(c1)CCN2CCCCl [Compound 1993471],3.79,
O=C1NC(=O)N(c2ccc(F)cc2)C(=O)/C1=C/c1ccc2c(c1)CCCN2Cc1ccccc1 [Compound 1997460],5.21,
COc1ccc2c(c1)c1nc3ccccc3nc1n2Cc1ccc(OC)c(OC)c1 [Compound 2023256],4.58,
O=C(CN1CCc2ccccc21)Nc1ccc2c(c1)OCO2 [Compound 2064203],5.05,
CCCCN1C(=O)/C(=C/c2ccc(N3CCCCCC3)cc2)C(=O)NC1=S [Compound 2067755],4.11,
CCN(CC)c1ccc(C(=O)OCC(=O)Nc2cc3oc4ccccc4c3cc2OC)cc1 [Compound 2078838],4.14,

Compound,pEC50,EC50 E320A
O=C(Nc1nc(-c2ccncc2)cs1)c1ccco1 [Compound 2081288],4.90,
COc1cc2c(cc1NC(=O)c1cc(-c3ccncc3)nc3ccccc13)oc1ccccc12 [Compound 2098333],6.36,
COc1ccc(-n2c(C)cc(C(=O)COC(=O)c3cc(NC(=O)c4cccs4)c(OC)c(OC)c3)c2C)cc1 [Compound 2108710],4.20,
NC(=O)c1cc(-c2ccccc2)sc1NC(=O)Cc1ccc(S(=O)(=O)N2CCOCC2)s1 [Compound 2121076],4.71,
Cc1ccc(/C=C/C(=O)Nc2nnc(SCc3ccc(C#N)cc3)s2)o1 [Compound 2126150],,Infinite
CCOC(=O)c1sc(NC(=O)CSc2nnnn2-c2ccccc2)c(C(=O)OCC)c1C [Compound 2132989],4.74,
Cc1oc(-c2ccc(Cl)cc2)cc1-c1nn2c(-c3ccoc3C)nnc2s1 [Compound 2145570],5.08,
Cc1oc(-c2ccc(F)cc2)cc1-c1nn2c(-c3ccoc3C)nnc2s1 [Compound 2145571],4.92,
CCOc1cc(/C=C2/N=C(c3ccc(C(C)(C)C)cc3)OC2=O)cc(Cl)c1OS(C)(=O)=O [Compound 2182821],5.07,
Cn1c(SCC(=O)Nc2ccc3c(c2)oc2ccccc23)nnc1-c1ccccc1 [Compound 2193118],4.42,
O=C(Nc1ccc2nn(-c3ccccc3)nc2c1)c1ccc2c(c1)OCO2 [Compound 2208079],3.25,
Cc1cc(C=C2C(=O)CCCC2=O)c(C)n1-c1ccccc1 [Compound 2313216],4.55,
COc1ccc(-c2cc(C(=O)OCC(=O)Nc3ccc4c(c3)OCO4)c3ccccc3n2)cc1 [Compound 2338283],,Infinite
Cc1csc(NC(=O)c2cc(-c3ccco3)nc3ccccc23)n1 [Compound 2366866],5.07,
N#Cc1ccsc1NC(=O)CSc1ncnc2ccccc12 [Compound 2369720],4.95,
Cc1[nH]nc2ncc(C(=O)c3cc(Cl)cc(Cl)c3O)cc12 [Compound 2421294],5.01,
